In patent publication US4067997A, “Synergistic microbecidal composition and method” (priority 1976, dated 1978):
≈ marks a conversion by molar mass, not a printed value. Where a name gives a salt, the structure may show the parent alone. Read-outs that look alike come from different tables or passages of the source.

What was measured:
Type in all cases: cell-based
[1] = system: nine gram-positive organisms and the yeast/fungus Candida; experiment: MIC, broth dilution, over all organisms (Examples I/II); conditions: for MIC: read-out: MIC range
Method: In order to establish comparative bactericidal and fungicidal results with homologous fatty acids, a series of experiments was performed with thirty straight-chain fatty acids and derivatives thereof. Eight different gram-negative and twelve different gram-positive organisms, representing a very broad spectrum of organisms, were used in these experiments including the fungus Candida (a yeast). Additionally, fatty acids were chosen to show the effects of saturation versus unsaturation, in the fatty acid claim. Standard solutions of the fatty acids and their derivatives were prepared by first dissolving the weighed compounds in 1 to 2 ml of 95% ethanol and immediately pouring this solution into 200 ml of Tripticase Soy Broth. These lipid compounds which are insoluble in water and broth precipitated into very small crystals or droplets. The tubes containing the suspension were warmed to approximately 70° C and were then placed in an ultrasonic tank for further solubilization of the lipid derivatives.
Standard solutions (or suspensions) at 1,000 μg/ml were twofold serially diluted with additional broth to a concentration of 125 μg/ml. A 4-ml amount of each dilution was then quickly, and with constant agitation, dispensed into appropriately labeled screw-capped glass tubes (16 by 125 mm). The tubes were sterilized with steam at 15 psi for 15 minutes. After sterilization, all tubes were cooled and incubated overnight at 35° C to insure sterility.
All compounds were compared on a molar (micromoles/milliliter) rather than on a mass basis. In the following lists of organisms used, those followed by a parenthetical number are registered with the American Type Culture Collection (ATCC); the remainder were isolates from Providence Hospital or Northland Laboratory.
Staphylococcus aureus, S. epidermidis, beta-hemolytic streptococci (Group A and non-group A), group D streptococcus, Bacillus subtilis (6051), Sarcina lutea (9431), Micrococcus sp., Candida albicans, Nocardia asteroids (3308), Corynebacterium sp. (10700), and pneumococcus (63001).
One drop (0.04 ± 0.01 ml) of an 18-hr broth culture containing 10^7 and 10^9 organisms/ml was added to each dilution of the test compound, as well as to a tube of plain broth which served as the positive control. After inoculation, the contents of each tube were well mixed, and the tubes were incubated at 35° C in a 5% carbon dioxide + […] atmosphere.
The MIC is defined as the lowest concentration of compound at which no […] evidence of growth was observed when turbidity of the inoculated broth dilutions was compared with control tubes. […] Only a one-tube difference between the bactericidal and bacteriostatic concentrations was normally observed.
Table 5 presents a comparison of the C10 and C12 free acids and their glyceryl derivatives, and Table 6 gives the corresponding ranges of activity.
Standard solutions (1000 μg/ml) of three fatty acids and polyglycerol esters thereof were prepared as described in Example I. Also sucrose esters were prepared by transferring the weighed compounds (0.2 gm. dissolved in 1 ml absolute methanol) into 200 ml of sterile Trypticase Soy Broth (TSB). These standard solutions (1000 μg/ml) were twofold serially diluted with additional sterile broth to a concentration of 125 μg/ml. A 3.8 aliquot of each dilution was asceptically delivered into sterile screw-capped culture tubes. All tubes were incubated overnight at 36° C to insure sterility. The microorganisms used in this example were the same as those used in Example I.
The inoculum, 0.05 ml of an 13-24 hour TSB culture (approximately 10^9 organisms/ml) was asceptically delivered into all dilutions of the compounds, mixed well, and incubated at 36° C. […]

Candida albicans = experiment: MIC on mass basis (Example V procedure); conditions: Candida albicans, read-out: MIC
Method: (§1) The essential procedure of Example I was followed with a series of phenolic compounds, with the exception that the test method was conducted on a mass (μg/ml) basis rather than a molecular (mol/ml) basis of the foregoing tests, since the long established phenol-coeffecient test is on a mass rather than molecular basis. Additionally, a different but closely related group of organisms were used in this test, in order to give a complete representative span on gram-negative, gram-positive and fungus organisms. Additionally, the phenolic derivatives chosen for test purposes include a number of derivatives which are presently accepted by the FDA as food-grade phenolic microbicides.
(§2) The same procedure of Example V was repeated but with combinations of mono-laurin (GML).
(§3) The procedure of Example V was repeated with combinations of glycerol mono-laurin (GML) and ethylenediamine tetraacetic acid (EDTA) as the calcium salt and in combination with BHA.

Escherichia coli = experiment: MIC on mass basis (Example V procedure); conditions: Escherichia coli, read-out: MIC
Method: as §1, §2, §3

Nocardia asteroides = experiment: MIC on mass basis (Example V procedure)
Method: as §1, §2, §3

Pseudomonas aeruginosa = experiment: MIC on mass basis (Example V procedure); conditions: Pseudomonas aeruginosa, read-out: MIC
Method: as §1, §2, §3

Saccharomyces cerevisiae = experiment: MIC on mass basis (Example V procedure); conditions: Saccharomyces cerevisiae, read-out: MIC
Method: as §1, §2, §3

Staphylococcus aureus = experiment: MIC on mass basis (Example V procedure); conditions: Staphylococcus aureus, read-out: MIC
Method: as §1, §2, §3

Corynebacterium sp. = experiment: MIC on mass basis (Example V procedure)
Method: as §1

[2] = system: Streptococcus faecalis (Group D); experiment: MIC on mass basis (Example V procedure); conditions: Enterococcus faecalis, read-out: MIC
Method: as §1

Streptococcus pyogenes = experiment: MIC on mass basis (Example V procedure)
Method: as §1

[3] = Table 6, range over the organisms of Table 5, NI = no inhibition
[4] = Table 12, Nocardia asteroides, read-out: MIC
[5] = Table 12, Pseudomonas aeruginosa
[6] = Table 12, Saccharomyces cerevisiae
[7] = Table 12, Staphylococcus aureus
[8] = Table 12, Corynebacterium sp., read-out: MIC
[9] = Table 12, Streptococcus faecalis (Group D)
[10] = Table 12, Streptococcus pyogenes, read-out: MIC

MIC (Candida albicans; Table 12, Candida albicans) | MIC (Escherichia coli; Table 12, Eschericia coli) | MIC (Nocardia asteroides; [4]) | MIC (Pseudomonas aeruginosa; [5]) | MIC (Saccharomyces cerevisiae; [6]) | MIC (Staphylococcus aureus; [7]) | MIC (Corynebacterium sp.; [8]) | MIC [2, 9] | MIC (Streptococcus pyogenes; [10]) | Structure (SMILES) | other results
> 5000 µg/mL | > 5000 µg/mL | 500 µg/mL | > 5000 µg/mL | > 5000 µg/mL | 5000 µg/mL | 1000 µg/mL (≈ 4.27 mM) | 2500 µg/mL (≈ 10.7 mM) | 1000 µg/mL (≈ 4.27 mM) | CCc1cc(C(C)(C)C)c(O)c(C(C)(C)C)c1 [C2, 2,6-di-tert-butyl-4-ethylphenol] | 
> 5000 µg/mL | > 5000 µg/mL | 500 µg/mL | > 5000 µg/mL | > 5000 µg/mL | > 5000 µg/mL | 1000 µg/mL (≈ 3.81 mM) | > 5000 µg/mL | 5000 µg/mL (≈ 19.1 mM) | CCCCc1cc(C(C)(C)C)c(O)c(C(C)(C)C)c1 [C4, 2,6-di-tert-4-butylphenol] | 
> 5000 µg/mL | > 5000 µg/mL | 5000 µg/mL | > 5000 µg/mL | > 5000 µg/mL | > 5000 µg/mL | 5000 µg/mL (≈ 17.2 mM) | > 5000 µg/mL | > 5000 µg/mL | CCCCCCc1cc(C(C)(C)C)c(O)c(C(C)(C)C)c1 [C6, 2,6-di-tert-4-hexylphenol] | 
> 5000 µg/mL | > 5000 µg/mL | 5000 µg/mL | > 5000 µg/mL | > 5000 µg/mL | > 5000 µg/mL | 5000 µg/mL (≈ 15.7 mM) | > 5000 µg/mL | > 5000 µg/mL | CCCCCCCCc1cc(C(C)(C)C)c(O)c(C(C)(C)C)c1 [C8, 2,6-di-tert-4-octylphenol] | 
> 5000 µg/mL | > 5000 µg/mL | 5000 µg/mL | > 5000 µg/mL | > 5000 µg/mL | > 5000 µg/mL | 5000 µg/mL (≈ 14.4 mM) | > 5000 µg/mL | > 5000 µg/mL | CCCCCCCCCCc1cc(C(C)(C)C)c(O)c(C(C)(C)C)c1 [C10, 2,6-di-tert-4-decylphenol] | 

Further lines, the compound ahead of its results:

Structure (SMILES) | MIC (Candida albicans; Table 12, Candida albicans) | MIC (Escherichia coli; Table 12, Eschericia coli) | MIC (Nocardia asteroides; [4]) | MIC (Pseudomonas aeruginosa; [5]) | MIC (Saccharomyces cerevisiae; [6]) | MIC (Staphylococcus aureus; [7]) | MIC (Corynebacterium sp.; [8]) | MIC [2, 9] | MIC (Streptococcus pyogenes; [10]) | other results
CCCCCCCCCC(=O)OCC(O)CO (centres unmarked) [1-mono-caprin] |  |  |  |  |  |  |  |  |  | MIC [1, 3]: 100 to 2000 µM (≈ 24.6 to 493 µg/mL)
Cc1cc(C(C)(C)C)c(O)c(C(C)(C)C)c1 [BHT, 2,6-di-tert-butyl-4-methylphenol] | > 5000 µg/mL | > 5000 µg/mL | 1000 µg/mL | > 5000 µg/mL | > 5000 µg/mL | > 5000 µg/mL | 100 µg/mL (≈ 0.454 mM) | > 5000 µg/mL | 1000 µg/mL (≈ 4.54 mM) | MIC (Candida albicans; Table 16, Candida albicans, no unit in table): > 1000 µg/mL; MIC (Escherichia coli; Table 16, Escherichia coli, no unit in table (Example 5 procedure, mass basis)): > 1000 µg/mL; MIC (Nocardia asteroides; Table 16, Nocardia asteroides, no unit in table): 1,000; MIC (Pseudomonas aeruginosa; Table 16, Pseudomonas aeruginosa, no unit in table): > 1000 µg/mL; MIC (Saccharomyces cerevisiae; Table 16, Saccharomyces cerevisiae, no unit in table): > 1000 µg/mL; MIC (Staphylococcus aureus; Table 16, Staphylococcus aureus, no unit in table): > 1000 µg/mL; MIC (Corynebacterium sp.; Table 16, Corynebacterium sp., no unit in table): 100; MIC ([2]; Table 16, Streptococcus faecalis (Group D), no unit in table): > 1000 µg/mL; MIC (Streptococcus pyogenes; Table 16, Streptococcus pyogenes, no unit in table): 1,000
CCCCCCCCCC(=O)O [Capric acid, capric acid] |  |  |  |  |  |  |  |  |  | MIC ([1]; Table 2, range over the organisms of Table 1): 1450 to 5800 µM (≈ 250 to 999 µg/mL); MIC range [1, 3]: 1.45 - 5.8 μ/Mol/ml
CCCCCC(=O)O [Caproic, caproic acid] |  |  |  |  |  |  |  |  |  | Inhibition in words ([1]; saturated acids, Table 1): not inhibitory at all
CCCCCCCCCCCCN [Dodecylamine HCl] |  |  |  |  |  |  |  |  |  | MIC [1]: 28 to 112 µM
